Key:
Format in all cases: in vivo
midbrain p-α-s = assay: Midbrain p-α-s protein expression in MPTP Parkinson's disease model mouse (western-blotting); conditions: midbrain total protein, GAPDH internal reference, gavage 21 consecutive days after MPTP modeling
Method: (§1) Neurotoxins can be used to establish PD animal models. Currently, 1-methyl-4-phenyl-1,2,3,6-tetrahydropyridine (MPTP) is the sole synthetic toxin which is recognized to induce PD symptoms in human and non-human primates and in mice. Using MPTP subacute modeling method, C57BL/6J male mice were intraperitoneally injected with MPTP 30 mg/kg, once a day for 5 consecutive days. The experiment animals were divided into blank control group, MPTP model group, and compound treatment group. For the […] compound treatment group, the compound was administrated by gavage for 21 consecutive days after the completion of modeling; for the MPTP model group, the normal saline was administrated by gavage for 21 consecutive days after the completion of modeling; and for the blank control group, the normal saline was first intraperitoneally injected for 5 days, and then administrated by gavage for 21 days.
Alpha-synuclein is an “unfolded protein” in its natural state. It exists in a monomeric form, and participates in the physiological functions such as the release of neurotransmitters, the establishment of synaptic junctions, and the regulation of synaptic plasticity. Under pathological conditions, more than 90% of alpha-synuclein is phosphorylated at serine of position 129 and converted into phosphorylated alpha-synuclein (p-α-s), thereby forming Lewy bodies. The formation of Lewy bodies is one of the main pathological manifestations and pathological mechanisms for Parkinson's disease, and plays an important role in the formation and development of PD. The detection of the p-α-s expression in the midbrain and substantia nigra of PD model mice can evaluate the neuroprotective activity of the compound.
Half of experiment mice in each group were taken to extract the total midbrain protein, and the change in the midbrain P-α-s protein expression was determined by western-blotting using GAPDH as the internal reference. The experiment included blank control group, MPTP model group, positive control group (caffeic acid phenethyl ester, CAPE), prototype control group (styryl sulfone compounds 3B, 3C, 3D, and 3G, whose structures are shown as above), and target compound group.

substantia nigra TH = assay: Substantia nigra TH expression in MPTP Parkinson's disease model mouse (immunofluorescence); conditions: percentage of mean intensity of blank control group, gavage 21 days after MPTP modeling
Method: as §1
The main cause of PD lies in the pathological changes in the substantia nigra-striatum projection system of the brain and the progressive degeneration and loss of dopaminergic neurons. Tyrosine hydroxylase (TH) is the first enzyme in the biosynthesis of catecholamine neurotransmitters, as well as the first rate-limiting enzyme in the dopamine synthesis. It plays an important role in the synthesis and metabolism of the neurotransmitter DA. The TH in PD animal models and patients has a wide range of abnormal changes, from the gene expression to the enzyme protein content and enzyme activity. The detection of the TH expression in the midbrain and substantia nigra of PD model mice can be used to evaluate the neuroprotective activity of the compound.
Half of experiment mice in each group were taken to separate the midbrain after perfusion and fixation. The tissue was trimmed, and the substantia nigra-striatum area was taken to prepare paraffin sections. The TH immunofluorescence staining was performed in the brain sections of mice in each group. […] The experiment included blank control group, MPTP model group, positive control group (caffeic acid phenethyl ester, CAPE), prototype control group (styryl sulfone compounds 3B, 3C, 3D, and 3G, whose structures are shown as above), and target compound group.

substantia nigra pp38 = assay: Substantia nigra pp38 protein expression in MPTP Parkinson's disease model mouse (immunofluorescence); conditions: percentage of mean intensity of blank control group, gavage 21 days after MPTP modeling
Method: as §1
The p38 mitogen-activated protein kinase (p38 MAPK) is expressed in both neurons and glial cells, and is the intersection point of neuron-glial cell network information regulations. The activation of p38 signaling pathway is an important initiator of neuronal degeneration, which continuously induces the apoptosis of dopaminergic neurons in multiple ways. It has become a research hotspot for the treatment of PD. Studies have shown that the protective mechanism of CAPE against the death of primary cultured cerebellar granule neurons induced by glutamate lies in inhibiting the activation of p38 phosphorylation and in turn inhibiting the activation of the caspase 3 apoptotic pathway to prevent neuronal apoptosis. Therefore, the MPTP-induced PD mouse model can be used to investigate the inhibitory effect of the target compounds on the activation of p38 phosphorylation on the overall animal level.
Half of experiment mice in each group were taken to separate the midbrain after perfusion and fixation. The tissue was trimmed, and the substantia nigra-striatum area was taken to prepare paraffin sections. The double immunofluorescence staining for TH and phosphorylated p38 was performed to observe the coexpression of TH and phosphorylated p38, for the statistics of the change in the phosphorylated p38 protein expression. The experiment included blank control group, MPTP model group, positive control group (caffeic acid phenethyl ester, CAPE), prototype control group (styryl sulfone compounds 3B, 3C, 3D, and 3G, whose structures are shown as above), and target compound group.

GCLC = assay: Midbrain GCLC expression in MPTP Parkinson's disease model mouse (western blot); conditions: for Expression (GCLC/GAPDH): midbrain, MPTP Parkinson's disease model mouse, western blot
Method: as §1
Oxidative stress is an important pathogenic mechanism of PD. Dopaminergic neurons are more sensitive to oxidative stress and are more susceptible to oxidative stress damage. Glutathione (GSH) is an important antioxidant substance in the cell, and glutamate cysteine ligase (GCL) is the rate-limiting enzyme for GSH synthesis, which is composed of catalytic subunit (GCLC) and regulatory subunit (GCLM). The increase of GCLC expression can promote the synthesis of GSH and enhance the ability of tissue cells against oxidative stress. GCL, a phase II enzyme, plays an important protective role by catalyzing the conversion of free radicals into non-toxic products and increasing their water solubility to facilitate the elimination of free radicals, and maintain the redox balance in the body. It plays an important role in the process of protecting cells against oxidative stress damage. The activation of p38 protein phosphorylation has a negative regulatory effect on phase II enzymes. […] Using GCLC as an indicator, the inhibitory effect of the target compounds on MPTP-induced oxidative stress damage in PD mice can be investigated.
GCLC is expressed in astrocytes, microglial cells, and neurons. The total proteins of the midbrain tissue of mice in each experiment group were extracted, to determine the expression of phase II enzyme GCLC in the midbrain of mice by western blot using GAPDH as the internal reference. The experiment included blank control group, MPTP model group, positive control group (caffeic acid phenethyl ester, CAPE), prototype control group (styryl sulfone compounds 3B, 3C, 3D), and 3G, whose structures are shown as above), and target compound group.

SMILES	Expression (p-α-s/GAPDH) (midbrain p-α-s)	Expression (Immunofluorescence intensity %) (substantia nigra TH) [%]	Expression (Immunofluorescence intensity %) (substantia nigra pp38) [%]	Expression (GCLC/GAPDH) (GCLC)	midbrain GCLC expression compared with the styryl sulfone prototype compounds (GCLC)
O=S(=O)(/C=C/c1ccc(O)c(O)c1)Cc1ccc(C(F)(F)F)cc1 [Compound 3B, (E)-4-{2-[(4-trifluoromethylphenyl)mesyl]ethenyl}benzene-1,2-diol, reference compound]	0.93 ± 0.04	83.18 ± 5.87	134.70 ± 31.07	0.33 ± 0.04	
O=S(=O)(/C=C/c1ccc(O)c(O)c1)CCCc1ccccc1 [Compound 3C, (E)-4-{2-[(3-phenylpropyl)sulfonyl]ethenyl}benzene-1,2-diol, reference compound]	0.92 ± 0.13	74.63 ± 9.15	138.79 ± 27.44	0.34 ± 0.05	
O=S(=O)(/C=C/c1ccc(O)c(O)c1)Cc1ccc(Cl)cc1 [Compound 3D, (E)-4-{2-[(4-chlorophenyl)mesyl]ethenyl}benzene-1,2-diol, reference compound]	0.49 ± 0.12	87.38 ± 4.01	114.68 ± 21.42	0.53 ± 0.04	
CC(C)(C)c1ccc(CS(=O)(=O)/C=C/c2ccc(O)c(O)c2)cc1 [Compound 3G, (E)-4-{2-[(4-t-butylphenyl)mesyl]ethenyl}benzene-1,2-diol, reference compound]	0.61 ± 0.08	76.08 ± 7.08	118.25 ± 10.60	0.57 ± 0.09	
CC(C)N(c1ccc(CCS(=O)(=O)/C=C/c2ccc(OC(=O)N(C)c3ccc(I)cc3)c(OCCOCc3ccccc3)c2)cc1)C(C)C [Compound A1-3, (E)-2-(2-benzyloxyethoxy)-4-{2-[4-(N,N-diisopropylamino)phenylethylsulfonyl]ethenyl}phenyl-N-(4-iodophenyl)-N-methylcarbamate]	0.56 ± 0.12	89.68 ± 5.69	58.19 ± 12.07	0.84 ± 0.04	
CCN(CC)C(=O)Oc1ccc(/C=C/S(=O)(=O)Cc2ccc(C(F)(F)F)cc2)cc1OC(=O)N(CC)CC [Compound B1-1, (E)-4-{2-[(4-trifluoromethylphenyl)mesyl]ethenyl}-1,2-phenylenebis(diethylcarbamate)]	0.23 ± 0.12	95.86 ± 4.43	76.35 ± 21.90	1.17 ± 0.06	significantly higher
CCN(CC)C(=O)Oc1ccc(/C=C/S(=O)(=O)CCCc2ccccc2)cc1OC(=O)N(CC)CC [Compound C1-1, (E)-4-[2-(3-phenylpropylsulfonyl)ethenyl]-1,2-phenylenebis(diethylcarbamate)]	0.63 ± 0.06	96.58 ± 6.15	108.71 ± 12.51	1.34 ± 0.08	significantly higher
CCN(CC)C(=O)Oc1ccc(/C=C/S(=O)(=O)Cc2ccc(Cl)cc2)cc1OC(=O)N(CC)CC [Compound D1-1, (E)-4-{2-[(4-chlorophenyl)mesyl]ethenyl}-1,2-phenylenebis(diethylcarbamate)]	0.42 ± 0.10	99.19 ± 3.67	57.50 ± 15.33	1.29 ± 0.05	significantly higher
CC(=O)Oc1ccc(/C=C/S(=O)(=O)Cc2c(F)c(F)c(F)c(F)c2F)cc1OC(=O)NC(=O)c1ccc([N+](=O)[O-])c(C)c1 [Compound D5-4, (E)-2-[N-(3-methyl-4-nitrobenzoyl)carbamoyloxy]-4-{2-[(perfluorophenyl)mesyl]ethenyl}phenyl acetate]	0.64 ± 0.12	99.86 ± 6.27	103.25 ± 15.27	0.97 ± 0.07	
CNC(=O)Oc1ccc(/C=C/S(=O)(=O)CC(Cl)c2ccc(Cl)c([N+](=O)[O-])c2)cc1O (stereo not drawn) [Compound E2-2, (E)-4-{2-[2-chloro-2-(4-chloro-3-nitrophenyl)ethylsulfonyl]ethenyl}-2-hydroxyphenyl-N-methylcarbamate]	0.45 ± 0.07	93.12 ± 4.56	96.01 ± 10.37	1.48 ± 0.11	
CCN(CC)C(=O)Oc1ccc(/C=C/S(=O)(=O)Cc2ccc(C(C)(C)C)cc2)cc1OC(=O)N(CC)CC [Compound G1-1, (E)-4-{2-[(4-t-butylphenyl)mesyl]ethenyl}-1,2-phenylenebis(diethylcarbamate)]	0.34 ± 0.09	77.13 ± 7.40	82.16 ± 8.10	1.05 ± 0.04	significantly higher
